Our source for the Activity values is ChEMBL document CHEMBL1146565, “Intercedensides A-C, three new cytotoxic triterpene glycosides from the sea cucumber Mensamaria intercedens Lampert” (2003).

Bounds are passed on as bounds.

In this experiment the test system is Pyricularia oryzae. The experiment in a line: Antimicrobial activity against Pyricularia oryzae P-2b assessed as drug concentration causing minimum morphological deformation. Type of experiment: functional.

As for `O=c1[nH]cc(F)c(=O)[nH]1` [FLUOROURACIL], the Activity result is reported as “<=5 ug ml-1”.
